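Dose response: 5 concentrations. Exposure: 48 h. Format: 96-well plates. Endpoint: linear interpolation; highest concentration if not reached. GI50 marks 50% less growth. Definition used: TGI = concentration required for complete inhibition of growth.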
What was measured:
Assay in all cases: NCI anticancer screen, dose series, 48 h
[1] = tested on: SF-295 CNS
[2] = tested on: SK-MEL-5 melanoma
[3] = tested on: CAKI-1 renal
[4] = tested on: SW-620 colon
[5] = tested on: TK-10 renal
[6] = tested on: A549 NSCLC
[7] = tested on: SF-268 CNS
[8] = tested on: K-562 leukemia
[9] = tested on: NCI-H23 lung
[10] = tested on: CCRF-CEM leukemia

SMILES	TGI [1] [µM]	TGI [2] [µM]	TGI [3] [µM]	TGI [4] [µM]	TGI [5] [µM]	TGI [6] [µM]	TGI [7] [µM]	TGI [8] [µM]	TGI [9] [µM]	TGI [10] [µM]	GI50 [1] [µM]	GI50 [2] [µM]	GI50 [3] [µM]	GI50 [4] [µM]	GI50 [5] [µM]	GI50 [6] [µM]	GI50 [7] [µM]	GI50 [8] [µM]	GI50 [9] [µM]	GI50 [10] [µM]
CC12CC(Sc3ccccc3N1)c1ccccc1O2 (stereo not drawn)	29.8	28	42.4	31.8	51.4	41.9	30.4	40.2	29.8	36.5	–	–	–	–	–	–	–	–	–	–
O=C(Nc1cccc(-n2cc(-c3ccncc3)c(-c3ccc(O)c(Cl)c3)n2)c1)c1ccc(Cl)c(Cl)c1	86.5	18.7	> 100	> 100	> 100	> 100	> 100	> 100	> 100	> 100	5.94	3.9	3.38	3.89	43.2	6.55	36.9	3.48	15	4.08
CCN(CC)CCC(=O)/C=C/c1ccc(C)cc1	34.6	30.2	3.28	14.9	19.3	34.5	30.4	> 100	32.4	56.1	–	–	–	–	–	–	–	–	–	–
CCN(CC)c1ccc(/C=C/C=C(/C#N)C(N)=S)cc1	> 100	> 100	> 100	> 100	> 100	> 100	> 100	18.9	> 100	71.8	27.6	5.96	31.8	15.4	28.7	5.94	30.2	2.83	8.45	3.16
Cc1cn2c(/C=N/N=C(N)N)c(-c3ccsc3)nc2s1	22.9	5.19	32.7	23.3	27.5	34.7	44.3	> 100	30.5	6.21	9.98	2.71	17.4	5.67	13.4	17.1	14.6	3.82	15.8	2.54
COC(=O)[C@@H](OC)[C@@H]1Cc2cc3cc(OC4CC(OC5CC(O)C(O)C(C)O5)C(O)C(C)O4)c(C)c(O)c3c(O)c2C(=O)[C@H]1OC1CC(OC2CC(OC3CC(C)(O)C(O)C(C)O3)C(O)C(C)O2)C(O)C(C)O1 (stereo partly drawn)	> 5.45	0.0892	–	> 16.5	> 16.5	> 16.5	> 7.49	> 16.5	–	> 7.4	0.0357	0.0327	0.0425	0.04	0.0438	0.0484	0.0455	0.0407	0.0345	0.035
CNC(=O)c1cc2c(Oc3ccc(NC(=S)NC(=O)Cc4ccccc4)cc3F)ccnc2cc1OC	> 100	> 100	> 100	> 100	> 100	> 100	> 100	> 100	> 100	> 100	0.196	> 20.6	4.23	> 100	5.99	> 48.6	4.51	0.502	3.13	> 29.9
CN1CCN(c2ccc(C(=O)Nc3cccc(C#Cc4cccc5[nH]nc(N)c45)c3)cc2C(F)(F)F)CC1	1.39	6.34	1.51	1.26	3.24	2.02	4.85	0.717	6.12	4.6	0.654	2.16	0.668	0.608	1.1	0.767	1.21	0.0235	1.79	1.16
O=c1cc(O)c2c(O)cc(O)cc2o1	> 100	> 100	> 100	> 100	> 100	> 100	> 100	> 100	> 100	> 100	–	–	–	–	–	–	–	–	–	–
O=C1CCC2(c3ccccc3)Nc3ccc(Cl)cc3N12 (stereo not drawn)	> 100	> 100	> 100	> 100	> 100	> 100	> 100	> 100	> 100	> 100	–	–	–	–	–	–	–	–	–	–
O=C(NC(=O)c1cc2cc(Br)cc(Br)c2oc1=O)Oc1ccccc1	> 100	> 100	> 100	> 100	> 100	> 100	> 100	> 100	> 100	> 100	–	–	–	–	–	–	–	–	–	–

— PubChem BioAssay (NCI)
